Measurements: patent publication US10172961B2 (priority 2014, dated 2019)

How the values were obtained:
[1] = target: HPIV3 envelope glycoproteins (Human parainfluenza 3 virus, UniProt P06828); type: cell-based, Human parainfluenza virus type 3; details: fusion assay with HPIV3 envelope glycoproteins; for IC50: read-out: IC50 nM, in vitro efficacy; for IC90: read-out: IC90 nM, in vitro efficacy
MV-IC323-EGFP = details: for IC50: 72 h
[2] = rat, in vivo
wild type MV G954 = details: read-out: IC50, inhibition of MV entry (plaque reduction); wt MV G954, Vero-SLAM cells
Procedure: Vero-SLAM cell monolayers were infected with wild type MV G954 in the presence MV HRC peptides at the indicated peptide concentrations. Viral entry was assessed by plaque reduction assay. […] Each point represents the mean (±standard error) of four experiments. […] Vero-SLAM cell monolayers were infected with wild type MV-IC323-EGFP. After 90 minutes, medium with the indicated peptide concentrations was added. Viral spread was assessed by using a fluorescent readout of the EGFP after 72 hours. […] Each point represents the mean (±standard deviation) of a representative experiment.
Vero-SLAM monolayer cells were incubated with 40-50 PFU of wild type MV G954 in the presence of various concentrations of peptides. After 90 minutes, 2× minimal essential medium containing 10% FBS was mixed with 1% avicell and added to the dishes. The plates were then incubated at 37° C. for 72 h. After removing the medium overlay, the cells were immunostained for plaque detection. The number of plaques in the control (no peptide) and experimental wells were counted under a dissecting stereoscope.
The inhibitory activities of MV HRC 1, MV HRC 2, MV HRC 3 and MV HRC 4 (FIG. 1) against wt MV G954 were assessed in plaque reduction assays (FIG. 2A).

[3] = in vivo; cited from earlier work

HPIV3 envelope glycoproteins, sequence (P06828 110-539 limits assumed): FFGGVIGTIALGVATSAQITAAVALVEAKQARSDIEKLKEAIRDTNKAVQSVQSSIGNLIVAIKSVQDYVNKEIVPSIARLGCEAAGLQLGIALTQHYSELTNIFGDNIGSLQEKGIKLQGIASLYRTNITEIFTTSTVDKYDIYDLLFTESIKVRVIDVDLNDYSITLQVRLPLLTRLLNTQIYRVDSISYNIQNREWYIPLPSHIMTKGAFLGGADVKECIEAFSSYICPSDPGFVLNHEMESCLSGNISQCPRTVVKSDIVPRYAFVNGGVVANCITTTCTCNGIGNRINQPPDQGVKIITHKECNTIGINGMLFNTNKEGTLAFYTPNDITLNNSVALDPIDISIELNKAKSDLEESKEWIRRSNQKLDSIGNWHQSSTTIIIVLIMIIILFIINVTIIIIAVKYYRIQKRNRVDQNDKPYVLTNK
HPIV3 envelope glycoproteins, sequence (P06828 19-109 partner limits assumed): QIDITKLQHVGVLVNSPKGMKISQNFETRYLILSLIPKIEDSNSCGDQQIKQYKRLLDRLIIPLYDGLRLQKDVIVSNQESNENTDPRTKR

Ac-VALDPIDISIVLNKIKSDLEESKEWIRRSNKILDSI-GSGSG-C(PEG4-Ursolic)-NH2 (SEQ ID NO: 15) [VIKI-PEG4-Ursolic]
IC50 [1]: 200 nM
IC90 [1]: > 1000 nM

CC[C@H](C)[C@H](NC(=O)[C@H](C)NC(=O)[C@H](CC(N)=O)NC(=O)CNC(=O)[C@H](CC(C)C)NC(=O)[C@H](CC(N)=O)NC(=O)[C@@H](NC(=O)CNC(=O)[C@@H](NC(=O)[C@H](CC(=O)O)NC(=O)[C@H](CC(C)C)NC(=O)[C@H](CCCNC(=N)N)NC(=O)[C@H](CCC(=O)O)NC(=O)[C@H](CC(C)C)NC(=O)[C@H](CO)NC(=O)[C@@H](NC(=O)[C@@H]1CCCN1C(=O)[C@@H]1CCCN1C(C)=O)[C@@H](C)CC)C(C)C)[C@@H](C)O)C(=O)N[C@@H](C)C(=O)N[C@@H](CCCCN)C(=O)N[C@@H](CC(C)C)C(=O)N[C@@H](CCC(=O)O)C(=O)N[C@@H](CC(=O)O)C(=O)N[C@@H](C)C(=O)N[C@@H](CCCCN)C(=O)N[C@@H](CCC(=O)O)C(=O)N[C@@H](CC(C)C)C(=O)N[C@@H](CC(C)C)C(=O)N[C@@H](CCC(=O)O)C(=O)N[C@@H](CO)C(=O)N[C@@H](CO)C(=O)N[C@@H](CC(=O)O)C(=O)N[C@@H](CCC(N)=O)C(=O)N[C@H](C(=O)N[C@@H](CC(C)C)C(=O)N[C@@H](CCCNC(=N)N)C(=O)NCC(=O)N[C@@H](CO)C(=O)NCC(=O)N[C@@H](CO)C(=O)NCC(=O)N[C@@H](CSC1=CC(=O)N(CCCC(=O)NCCOCCOCCOCCOCCC(=O)NCCNCCOC2CCC3(C)C(=CCC4C3CCC3(C)C(C(C)CCCC(C)C)CCC43)C2)C1=O)C(N)=O)[C@@H](C)CC (some centres unmarked) [MV HRC2]
IC50 (MV-IC323-EGFP): ~54 nM
presence in the brain / CNS localization [2]: a small fraction of the administered peptides was present
presence in the serum [2]: a small fraction of the administered peptides was present

Ac-VALDPIDISIVLNKIKSDLEESKEWIRRSNKILDSI-GSGSG-C(PEG4-C30)-NH2 (SEQ ID NO: 13) [VIKI-PEG4-C30]
IC50 [1]: 40 nM
IC90 [1]: 800 nM

Ac-VALDPIDISIVLNKIKSDLEESKEWIRRSNKILDSI-GSGSG-C(PEG4-C20)-NH2 (SEQ ID NO: 12) [VIKI-PEG4-C20]
IC50 [1]: 75 nM
IC90 [1]: 900 nM

Ac-VALDPIDISIVLNKIKSDLEESKEWIRRSNKILDSI-GSGSG-C(PEG4-Betulinic)-NH2 (SEQ ID NO: 14) [VIKI-PEG4-Betulinic]
IC50 [1]: 550 nM
IC90 [1]: > 1000 nM

CC[C@H](C)[C@H](NC(=O)[C@H](C)NC(=O)[C@H](CC(N)=O)NC(=O)CNC(=O)[C@H](CC(C)C)NC(=O)[C@H](CC(N)=O)NC(=O)[C@@H](NC(=O)CNC(=O)[C@@H](NC(=O)[C@H](CC(=O)O)NC(=O)[C@H](CC(C)C)NC(=O)[C@H](CCCNC(=N)N)NC(=O)[C@H](CCC(=O)O)NC(=O)[C@H](CC(C)C)NC(=O)[C@H](CO)NC(=O)[C@@H](NC(=O)[C@@H]1CCCN1C(=O)[C@@H]1CCCN1C(C)=O)[C@@H](C)CC)C(C)C)[C@@H](C)O)C(=O)N[C@@H](C)C(=O)N[C@@H](CCCCN)C(=O)N[C@@H](CC(C)C)C(=O)N[C@@H](CCC(=O)O)C(=O)N[C@@H](CC(=O)O)C(=O)N[C@@H](C)C(=O)N[C@@H](CCCCN)C(=O)N[C@@H](CCC(=O)O)C(=O)N[C@@H](CC(C)C)C(=O)N[C@@H](CC(C)C)C(=O)N[C@@H](CCC(=O)O)C(=O)N[C@@H](CO)C(=O)N[C@@H](CO)C(=O)N[C@@H](CC(=O)O)C(=O)N[C@@H](CCC(N)=O)C(=O)N[C@H](C(=O)N[C@@H](CC(C)C)C(=O)N[C@@H](CCCNC(=N)N)C(=O)NCC(=O)N[C@@H](CO)C(=O)NCC(=O)N[C@@H](CO)C(=O)NCC(=O)N[C@@H](CSC1=CC(=O)N(CCCC(=O)NCCOCCOCCOCCOCCC(=O)NCCN(CCNC(=O)CCOCCOCCOCCOCCNC(=O)CCCN2C(=O)C=C(SC[C@H](NC(=O)CNC(=O)[C@H](CO)NC(=O)CNC(=O)[C@H](CO)NC(=O)CNC(=O)[C@H](CCCNC(=N)N)NC(=O)[C@H](CC(C)C)NC(=O)[C@@H](NC(=O)[C@H](CCC(N)=O)NC(=O)[C@H](CC(=O)O)NC(=O)[C@H](CO)NC(=O)[C@H](CO)NC(=O)[C@H](CCC(=O)O)NC(=O)[C@H](CC(C)C)NC(=O)[C@H](CC(C)C)NC(=O)[C@H](CCC(=O)O)NC(=O)[C@H](CCCCN)NC(=O)[C@H](C)NC(=O)[C@H](CC(=O)O)NC(=O)[C@H](CCC(=O)O)NC(=O)[C@H](CC(C)C)NC(=O)[C@H](CCCCN)NC(=O)[C@H](C)NC(=O)[C@@H](NC(=O)[C@H](C)NC(=O)[C@H](CC(N)=O)NC(=O)CNC(=O)[C@H](CC(C)C)NC(=O)[C@H](CC(N)=O)NC(=O)[C@@H](NC(=O)CNC(=O)[C@@H](NC(=O)[C@H](CC(=O)O)NC(=O)[C@H](CC(C)C)NC(=O)[C@H](CCCNC(=N)N)NC(=O)[C@H](CCC(=O)O)NC(=O)[C@H](CC(C)C)NC(=O)[C@H](CO)NC(=O)[C@@H](NC(=O)[C@@H]3CCCN3C(=O)[C@@H]3CCCN3C(C)=O)[C@@H](C)CC)C(C)C)[C@@H](C)O)[C@@H](C)CC)[C@@H](C)CC)C(N)=O)C2=O)CCOC2CCC3(C)C(=CCC4C3CCC3(C)C(C(C)CCCC(C)C)CCC43)C2)C1=O)C(N)=O)[C@@H](C)CC (some centres unmarked) [MV HRC4]
IC50 (MV-IC323-EGFP): ~55 nM

CC[C@H](C)[C@H](NC(=O)[C@H](C)NC(=O)[C@H](CC(N)=O)NC(=O)CNC(=O)[C@H](CC(C)C)NC(=O)[C@H](CC(N)=O)NC(=O)[C@@H](NC(=O)CNC(=O)[C@@H](NC(=O)[C@H](CC(=O)O)NC(=O)[C@H](CC(C)C)NC(=O)[C@H](CCCNC(=N)N)NC(=O)[C@H](CCC(=O)O)NC(=O)[C@H](CC(C)C)NC(=O)[C@H](CO)NC(=O)[C@@H](NC(=O)[C@@H]1CCCN1C(=O)[C@@H]1CCCN1C(C)=O)[C@@H](C)CC)C(C)C)[C@@H](C)O)C(=O)N[C@@H](C)C(=O)N[C@@H](CCCCN)C(=O)N[C@@H](CC(C)C)C(=O)N[C@@H](CCC(=O)O)C(=O)N[C@@H](CC(=O)O)C(=O)N[C@@H](C)C(=O)N[C@@H](CCCCN)C(=O)N[C@@H](CCC(=O)O)C(=O)N[C@@H](CC(C)C)C(=O)N[C@@H](CC(C)C)C(=O)N[C@@H](CCC(=O)O)C(=O)N[C@@H](CO)C(=O)N[C@@H](CO)C(=O)N[C@@H](CC(=O)O)C(=O)N[C@@H](CCC(N)=O)C(=O)N[C@H](C(=O)N[C@@H](CC(C)C)C(=O)N[C@@H](CCCNC(=N)N)C(=O)NCC(=O)N[C@@H](CO)C(=O)NCC(=O)N[C@@H](CO)C(=O)NCC(=O)N[C@@H](CSCC(N)=O)C(N)=O)[C@@H](C)CC [MV HRC1]
IC50 (wild type MV G954): ~7000 nM
reduction of viral infection (fluorescence level) (MV-IC323-EGFP): neither MV HRC 1 nor MV HRC 3 reduced viral infection

Ac-VALDPIDISIVLNKIKSDLEESKEWIRRSNKILDSI-GSGSG-C(PEG4-palm)-NH2 (SEQ ID NO: 10) [VIKI-PEG4-palm]
IC50 [1]: 400 nM
IC90 [1]: > 1000 nM

enfuvirtide
distribution in the CNS [3]: negligible distribution in the CNS
